Where a SMILES comes first, the peptide text is derived from it.
Experiments:
[1] = Thioflavin-T fluorescence assay of amyloid formation kinetics; type: physicochemical; details: 16 μM peptide, 10 mM PBS pH 7.4, 25° C., no stirring; 1 week and 6 week incubations
Method: Sample Preparation. Each peptide was dissolved into 100% hexafluoroisoproponal (HFIP) to make a 0.5 mM stock solution. Stock solutions were filtered using […] Acrodisc syringe filter with a GHP membrane and the required amount of peptide was lyophilized overnight to remove HFIP. Dry peptide was dissolved into the appropriate buffer for the fluorescence assays. Fluorescence Assays. Thioflavin-T binding assays, conducted without HFIP or stirring at 25° C., were utilized to monitor amyloid formation kinetics. Fluorescence measurements were performed using a Spectramax Gemini EM plate reader. Corning 96-well non-binding surface black plates with lids were used and were sealed with polyethylene sealing tape. Samples were prepared by dissolving dry peptide into 10 mM PBS buffer (pH 7.4) and 32 μM thioflavin-T solution immediately before the measurement. Thioflavin-T fluorescence was measured with 450 nm excitation and emission at 485 nm was monitored. The final concentrations were 16 μM peptides. After creating the mutant-hIAPP polypeptides of the present disclosure, applicants tested the propensity of the different analogs to form amyloid at pH 7.4 using thioflavin-T fluorescence assays (FIGS. 2A-D) and TEM (FIGS. 3A-E). […] Amyloid formation follows a sigmoidal time course consisting of a lag phase in which few, if any, fibrils are formed, followed by a growth phase and a saturation phase in which amyloid fibrils are in equilibrium with soluble peptide.

[2] = Transmission electron microscopy (TEM) of amyloid aggregates; type: physicochemical; details: after 7 days of incubation, end of kinetic experiment
Method: Transmission Electron Microscopy (TEM). TEM images were recorded using an FEI Bio TwinG^2 Transmission Electron Microscope at the central microscopy center at Stony Brook University. 15 μL aliquots of the samples used for fluorescence assays were removed at the end of each kinetic experiment, blotted on a carbon formvar-coated 300-mesh copper grid for 1 min and then negatively stained with saturated uranyl acetate for 1 min. Images were taken at a 68,000× magnification and 100 nm under focus. Mutant-hIAPP polypeptides of the present disclosure were further analyzed using TEM. […] In contrast, no amyloid fibrils were formed after a 1 week (FIGS. 3B-E, left) or 6 week (FIGS. 3B-E, right) culture with the any of the mutant-hIAPP analogs tested.

[3] = target: T1, human amylin receptor (hAMY1(a)) (Homo sapiens, UniProt O60894+P30988); assay: cAMP production (LANCE cAMP assay) in transfected Cos-7 cells; type: cell-based; details: Cos-7 cells expressing hAMY1(a); for EC50: cAMP production, mean ± spread, read-out: Human Amylin1(a) receptor binding data pEC50 (converted)
T1 construct: expressed in transfected cells; host or cells: Cos-7 cells, transient transfection with PEI, pcDNA3.1 vectors
T1 sequence (O60894 27-148 partner, one chain of several): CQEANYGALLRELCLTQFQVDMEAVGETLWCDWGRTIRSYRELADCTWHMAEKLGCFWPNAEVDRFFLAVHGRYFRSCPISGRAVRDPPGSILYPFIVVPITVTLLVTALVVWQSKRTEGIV
Method: (§1) Cell Culture and Transfection. Cos-7 cells were cultured and transfected for receptor activity assays as previously described in Bailey, R. J., and Hay, D. L. Peptides (2006) 27, pp. 1367-1375, the entire contents of which is incorporated herein by reference. Specifically, cells were cultured in Dulbucco's modified eagle medium (DMEM) with 8% heat-inactivated fetal bovine serum (FBS) and kept in a 37° C. humidified 95% air/5% CO2 incubator. Cells were plated at a density of 18,000-20,000 cells/well (depending on cell passage) in 96-well culture plate and returned to the incubator for approximately 18-24 hours. Transient transfections were carried out using polyethyleneimine (PEI) as described previously and maintained at 37° C. in a humidified 95% air/5% CO2 incubator for 36-48 hours. All DNA constructs used in this these were in pcDNA3.1 vectors.
(§2) cAMP Assay: Measurement of intracellular cAMP was achieved using a time-resolved fluorescent resonance energy transfer assay (LANCE cAMP assay, PerkinElmer), similar to the previously described Alphascreen assay as described in Gingell, J. J., et al. Peptides (2010) 31, pp. 1400-1404, with the following changes. Following stimulation with peptide agonist, cAMP assay media from the wells was thoroughly aspirated and 50 μl of ice-cold absolute ethanol added to each well. Plates were then placed in a −30° C. freezer for 10 minutes or overnight prior to assay, then removed and allowed to air dry in a fume hood for 1-2 hours. After ethanol evaporated from the plates, 50 μl of LANCE detection buffer (lysis buffer, 0.35% Triton X-100, 50 mM HEPES and 10 mM calcium chloride in ddH2O, pH 7.4) was added per well and left on a plate shaker for 10-15 minutes at room temperature. Meanwhile, a cAMP standard curve was generated using LANCE detection buffer and a serially diluted cAMP standard (50 μM) ranging from 1 μM to 10 pM. The serially diluted cAMP standards (5 μl) and cell lysates (5 μl) were transferred into 384-well opti-plates and sealed with a Sealplate®-A-384-well microplate adhesive film and briefly centrifuged (10 seconds, 500 rpm, 23° C.). A 1:200 dilution of LANCE assay Alexa Fluor® 647 anti-cAMP antibody was prepared in detection buffer and 5 μl added to each well. Plates were sealed and briefly centrifuged again (10 seconds, 500 rpm, 23° C.) and left to incubate, sealed for 30 minutes at room temperature. During this incubation, detection mix was made up consisting of detection buffer, Europium-W8044 labelled streptavidin (1:4500) and biotin-cAMP (1:1500). After 30 minutes incubation, 10 μl of detection mix was added to each well, plates were centrifuged (30 seconds, 500 rpm, 23° C.), sealed and left to incubate for 1 hour at room temperature. Plates were read after an overnight incubation on an Envision plate reader. A standard curve was included in each experiment to ensure accurate quantification of cAMP.
(§3) Data Analysis for Receptor Assays: Data were derived from independent experiments for statistical analysis and all experiments were performed and replicated. Quantification of cAMP was obtained from a standard curve included in each experiment and plotted using the software GraphPad Prism 6.0 (GraphPad Software Inc, San Diego, Calif., USA) with a non-linear regression 3-parameter logistic equation with a Hill Slope of 1 to determine the pEC50. The pEC50 values from the fits were combined from different experimental days and statistically tested for difference from the WT peptide using the Student's t-test with statistical significance defined as * p<0.05, ** p<0.01, *** p<0.001. Due to variability in amount of cAMP produced between experimental days, data were normalized to the control peptide for each experiment to obtain Emax values. For each analogue, data were normalized to the maximum (Emax) and minimum (Emin) responses of h-amylin. […]

[4] = target: T2, human calcitonin receptor (hCT(a)) (Homo sapiens, UniProt P30988); assay: as above; type: cell-based; details: Cos-7 cells expressing hCT(a); for EC50: cAMP production, mean ± spread, read-out: Human calcitonin receptor binding data pEC50 (converted)
T2 construct: expressed in transfected cells; host or cells: Cos-7 cells, transient transfection with PEI, pcDNA3.1 vectors
T2 sequence (P30988 25-474): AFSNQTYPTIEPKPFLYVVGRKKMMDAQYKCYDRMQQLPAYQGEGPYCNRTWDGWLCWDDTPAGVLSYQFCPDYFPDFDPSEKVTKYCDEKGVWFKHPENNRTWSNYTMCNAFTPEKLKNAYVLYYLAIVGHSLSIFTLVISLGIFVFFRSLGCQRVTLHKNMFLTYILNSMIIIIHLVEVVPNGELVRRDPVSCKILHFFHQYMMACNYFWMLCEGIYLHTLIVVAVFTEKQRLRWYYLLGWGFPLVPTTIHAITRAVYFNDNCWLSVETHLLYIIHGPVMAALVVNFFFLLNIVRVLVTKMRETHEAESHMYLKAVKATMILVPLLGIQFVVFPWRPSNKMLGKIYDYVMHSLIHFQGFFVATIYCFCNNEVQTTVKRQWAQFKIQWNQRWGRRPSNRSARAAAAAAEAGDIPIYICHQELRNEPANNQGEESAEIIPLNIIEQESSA
Method: as §1, §2, §3

[5] = pH 7.4
Method: Dry peptides were dissolved into 10 mM PBS buffer at pH 7.4 at different initial concentrations, and were incubated for 7 days at 25° C. without stirring. Each sample was then centrifuged using a Beckman Coulter Microfuge 22R Centrifuge at 24° C. for 20 min. The relative centrifugal force used was 1.75×10^4 g. Solubility of each sample was approximated by measuring the absorbance of the corresponding supernatant at 280 nm measured using a Beckman Coulter DU 730 UV/Vis Spectrophotometer.
Each peptide tested was incubated in 10 mM PBS buffer at pH 7.4 for 7 days at three different concentrations (100 μM, 500 μM and 1 mM) and the solution was then centrifuged. The apparent solubility was represented by the absorbance of the supernatant of each sample measured at 280 nm. The extinction coefficients of all polypeptides are very similar at 280 nm since they all contain the same aromatic residues and each contains a disulfide bond. […] A peptide which is soluble at 1 mM and above will show a linear dependence of absorbance on initial concentration. A peptide which is less soluble will deviate from linearity. The peptides were centrifuged after 7 days and their apparent solubility measured by measuring the absorbance at 280 nm of the supernatant of each solution. The apparent concentration refers to the concentration which would be obtained if all of the peptide dissolved. The absorbance of the supernatant is directly proportion to the amount of peptide in solution.

[6] = pH 7
Method: 100 μL each solution was obtained immediately following dissolution with Novolin-N® and was centrifuged using a Beckman Coulter Microfuge (22R Centrifuge) at 24° C. for 20 minutes. The relative centrifugal force used was 1.75×104 g. Aliquots of each sample were immediately frozen and lyophilized. The remaining portion of each sample was not centrifuged and were incubated at 25° C. without stirring. Samples were collected again following the same procedures after 1 day, 7 days and 30 days. Dry samples were redissolved in 4:1 HPLC buffer mix (4A:1B, below) and immediately injected for liquid chromatography-mass spectroscopy (LC-MS) measurements. The HPLC buffers were (A) H2O (0.1% acetic acid and 0.02% TFA) and (B) CH3CN (0.1% acetic acid and 0.02% TFA). Solubility of each co-formulated sample was determined by measuring the absorbance from the liquid chromatogram traces at 215±8 nm and at 277±8 nm at each time point tested. points (0 hours, 24 hours, 7 days and 30 days post-formulation).

amyloid aggregates in TEM images [2] | EC50 [3] [nM] | EC50 [4] [nM] | Compound | amyloid formation monitored by thioflavin-T fluorescence [1] | concentration-response of cAMP production compared with wild-type hIAPP [3] | concentration-response of cAMP production compared with wild-type hIAPP [4] | solubility at neutral pH (absorbance of supernatant at 280 nm) [5] | solubility co-formulated with Novolin-N (absorbance at 215 nm and 277 nm, LC-MS) [6]
no aggregates are observed | 3.39 | 5.01 | CC(C)C[C@H](NC(=O)[C@H](CCCNC(=N)N)NC(=O)[C@H](CCC(N)=O)NC(=O)[C@@H](NC(=O)[C@H](C)NC(=O)[C@@H]1CSSC[C@H](NC(=O)[C@@H](N)CCCCN)C(=O)N[C@@H](CC(N)=O)C(=O)N[C@@H]([C@@H](C)O)C(=O)N[C@@H](C)C(=O)N[C@@H]([C@@H](C)O)C(=O)N1)[C@@H](C)O)C(=O)N[C@@H](C)C(=O)N[C@@H](CC(N)=O)C(=O)N[C@@H](Cc1ccccc1)C(=O)N[C@@H](CC(C)C)C(=O)N[C@H](C(=O)N[C@@H](Cc1c[nH]cn1)C(=O)N[C@@H](CO)C(=O)N[C@@H](CO)C(=O)N[C@@H](CC(N)=O)C(=O)N[C@@H](CCCCN)C(=O)N[C@@H](Cc1ccccc1)C(=O)N1CCC[C@H]1C(=O)N[C@@H](C)C(=O)N1CCC[C@H]1C(=O)N[C@@H](CC(C)C)C(=O)N[C@@H](CO)C(=O)N[C@@H](CO)C(=O)N[C@H](C(=O)N[C@@H](CCCCN)C(=O)N[C@H](C(=O)NCC(=O)N[C@@H](CO)C(=O)N[C@@H](CC(N)=O)C(=O)N[C@H](C(=O)N[C@@H](Cc1ccc(O)cc1)C(N)=O)[C@@H](C)O)C(C)C)[C@@H](C)O)C(C)C [SEQ ID NO: 10] (HELM PEPTIDE1{K.C.N.T.A.T.C.A.T.Q.R.L.A.N.F.L.V.H.S.S.N.K.F.P.A.P.L.S.S.T.K.V.G.S.N.T.Y.[am]}$PEPTIDE1,PEPTIDE1,2:R3-7:R3$$$V2.0) | none of the mutant hIAPP polypeptides forms amyloid | do not significantly alter amylin or calcitonin receptor activity | do not significantly alter amylin or calcitonin receptor activity | more substantially soluble than wild-type hIAPP | significantly higher absorbance when compared to both wild-type hIAPP and paramlintide
no aggregates are observed | 0.372 | 2.82 | CC[C@H](C)[C@H](NC(=O)[C@H](C)NC(=O)CNC(=O)[C@H](Cc1ccccc1)NC(=O)[C@H](CCCCN)NC(=O)[C@H](CC(N)=O)NC(=O)[C@H](CO)NC(=O)[C@H](CO)NC(=O)[C@H](Cc1c[nH]cn1)NC(=O)[C@@H](NC(=O)[C@H](CC(C)C)NC(=O)[C@H](Cc1ccccc1)NC(=O)[C@H](CC(N)=O)NC(=O)[C@H](C)NC(=O)[C@H](CC(C)C)NC(=O)[C@H](CCCNC(=N)N)NC(=O)[C@H](CCC(N)=O)NC(=O)[C@@H](NC(=O)[C@H](C)NC(=O)[C@@H]1CSSC[C@H](NC(=O)[C@@H](N)CCCCN)C(=O)N[C@@H](CC(N)=O)C(=O)N[C@@H]([C@@H](C)O)C(=O)N[C@@H](C)C(=O)N[C@@H]([C@@H](C)O)C(=O)N1)[C@@H](C)O)C(C)C)C(=O)N[C@@H](CC(C)C)C(=O)N1CCC[C@H]1C(=O)N[C@@H](CO)C(=O)N[C@H](C(=O)N[C@@H](CCCCN)C(=O)N[C@H](C(=O)NCC(=O)N[C@@H](CO)C(=O)N[C@@H](CC(N)=O)C(=O)N[C@H](C(=O)N[C@@H](Cc1ccc(O)cc1)C(N)=O)[C@@H](C)O)C(C)C)[C@@H](C)O [SEQ ID NO: 22] (HELM PEPTIDE1{K.C.N.T.A.T.C.A.T.Q.R.L.A.N.F.L.V.H.S.S.N.K.F.G.A.I.L.P.S.T.K.V.G.S.N.T.Y.[am]}$PEPTIDE1,PEPTIDE1,2:R3-7:R3$$$V2.0) | none of the mutant hIAPP polypeptides forms amyloid | do not significantly alter amylin or calcitonin receptor activity | do not significantly alter amylin or calcitonin receptor activity | more substantially soluble than wild-type hIAPP | significantly higher absorbance when compared to both wild-type hIAPP and paramlintide

Reference: US11028137B2, “Mutant islet amyloid polypeptides with improved solubility and methods for using the same” (priority 2017, dated 2021)
